Where a name gives a salt, the structure may show the parent alone.

What all share (format): biochemical
Assay [1] has as its target T1, recombinant human MAO-B (monoamine oxidase-B) (Homo sapiens, UniProt P27338).
T1 construct: purchased Sigma-Aldrich
T1 sequence (P27338 1-520): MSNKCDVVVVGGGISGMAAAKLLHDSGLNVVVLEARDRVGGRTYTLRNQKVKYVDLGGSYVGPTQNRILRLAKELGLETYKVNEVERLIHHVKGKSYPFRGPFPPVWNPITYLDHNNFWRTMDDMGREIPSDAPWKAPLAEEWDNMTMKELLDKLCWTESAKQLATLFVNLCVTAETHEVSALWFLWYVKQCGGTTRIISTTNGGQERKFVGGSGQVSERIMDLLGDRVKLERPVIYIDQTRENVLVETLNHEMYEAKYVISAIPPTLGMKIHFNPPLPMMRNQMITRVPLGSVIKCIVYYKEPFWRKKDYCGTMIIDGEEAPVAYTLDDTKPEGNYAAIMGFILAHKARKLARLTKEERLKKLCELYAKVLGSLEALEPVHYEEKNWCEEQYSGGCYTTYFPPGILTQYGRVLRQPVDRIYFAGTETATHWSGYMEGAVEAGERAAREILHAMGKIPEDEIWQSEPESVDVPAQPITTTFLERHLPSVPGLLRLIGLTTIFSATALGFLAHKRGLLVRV
Briefly: Activity on recombinant human MAO-B, method similar to the VAP-1 assay. The note with it: substrate 1 mM benzylamine; read-out: Inhibitory Activity (IC50, nM) MAO-B. The protocol: (§1) The compounds according to the present technology were evaluated in terms of activity on recombinant human VAP-1 (R&D systems) by measuring the level of hydrogen peroxide in horseradish peroxidase (HRP)-coupled reaction using Amplex Red Hydrogen Peroxide Assay Kit (Molecular Probes, Invitrogen, USA). The experiment was carried out at room temperature using benzylamine as a substrate. In the HRP-coupled reaction, hydrogen peroxide oxidation of 10-acetyl-3,7-dihydroxyphenoxazine (Amplex Red reagent) produces resorufin, which is a highly fluorescent compound. Briefly, the test compound was dissolved in dimethyl sulfoxide (DMSO) at a concentration of 20 mM. The dose-response assessment was made by 1:3 serial dilution in DMSO, thereby creating an 8 point curve. The concentration of the upper part was controlled according to the efficacy of the compounds, followed by dilution with a reaction buffer solution to obtain a final DMSO concentration less than 1%. To each well of a 96 black well plate, human VAP-1 purified in 50 mM sodium phosphate buffer solution (pH7.4) was added. The test compounds dissolved in DMSO were incubated with the human VAP-1 enzymes at 37° C. for 30 minutes. After 30-minute incubation, each well is added with a reaction mixture containing 200 uM Amplex Red reagent prepared from 50 mM sodium phosphate buffer solution (pH 7.4), 1 mM benzylamine, and 1 U/mL HRP. Fluorescence intensity was measured at several time points during 1-2 hours using a microplate reader (Flexstation3, Molecular Devices) under the wavelength condition exciting at 544 nm and reading the emission at 590 nm. The inhibitory effect of the compounds was measured as a decrease (%) in the signal rate as compared to the control group without any inhibitor (only diluted DMSO). Data was fixed to a logistic model with four variables and IC50 value was calculated using GraphPad Prism program.
(§2) In addition, the compounds according to the present technology were evaluated in terms of activity on a recombinant human MAO-A (monoamine oxidase-A, Sigma-Aldrich) and a recombinant human MAO-B (monoamine oxidase-B, Sigma-Aldrich) by using as substrates, 0.5 mM tyramine and 1 mM benzylamine, respectively, with a method similar to the activity evaluation method for recombinant human VAP-1. The compounds according to the present technology were also evaluated in terms of activity on a recombinant human DAO (diamine oxidase, R&D systems) by using as a substrate 1 mM putrescine with a method similar to the activity evaluation method for recombinant human VAP-1.

In assay [2] the target is T2, recombinant human DAO (diamine oxidase) (Homo sapiens, UniProt P19801).
T2 construct: purchased R&D systems
T2 sequence (P19801 20-751): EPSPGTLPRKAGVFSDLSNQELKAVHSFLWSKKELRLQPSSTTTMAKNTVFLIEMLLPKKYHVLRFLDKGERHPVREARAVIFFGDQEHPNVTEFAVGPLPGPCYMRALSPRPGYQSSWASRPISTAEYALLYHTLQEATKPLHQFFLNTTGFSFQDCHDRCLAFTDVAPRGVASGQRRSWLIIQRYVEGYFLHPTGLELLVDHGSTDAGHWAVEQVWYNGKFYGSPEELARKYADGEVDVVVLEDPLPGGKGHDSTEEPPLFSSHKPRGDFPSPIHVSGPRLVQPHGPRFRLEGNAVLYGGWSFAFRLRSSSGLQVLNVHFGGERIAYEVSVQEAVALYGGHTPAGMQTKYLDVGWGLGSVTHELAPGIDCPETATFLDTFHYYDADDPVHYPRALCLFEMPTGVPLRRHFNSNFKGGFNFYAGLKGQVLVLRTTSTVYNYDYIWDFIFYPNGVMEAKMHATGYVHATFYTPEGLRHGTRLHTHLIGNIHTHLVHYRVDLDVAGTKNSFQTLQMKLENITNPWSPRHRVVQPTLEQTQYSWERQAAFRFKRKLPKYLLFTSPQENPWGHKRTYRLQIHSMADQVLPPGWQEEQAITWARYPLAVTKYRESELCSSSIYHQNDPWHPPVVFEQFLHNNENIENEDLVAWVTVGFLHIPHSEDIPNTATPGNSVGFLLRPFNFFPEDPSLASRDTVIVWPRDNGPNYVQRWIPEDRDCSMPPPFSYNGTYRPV
Description: Activity on recombinant human DAO, method similar to the VAP-1 assay. The note with it: substrate 1 mM putrescine; read-out: Inhibitory Activity (IC50, nM) DAO. The protocol:
as §1, §2

In assay [3] the target is T3, recombinant human VAP-1 (Homo sapiens, UniProt Q16853).
T3 construct: purchased R&D systems
T3 sequence (Q16853 1-763): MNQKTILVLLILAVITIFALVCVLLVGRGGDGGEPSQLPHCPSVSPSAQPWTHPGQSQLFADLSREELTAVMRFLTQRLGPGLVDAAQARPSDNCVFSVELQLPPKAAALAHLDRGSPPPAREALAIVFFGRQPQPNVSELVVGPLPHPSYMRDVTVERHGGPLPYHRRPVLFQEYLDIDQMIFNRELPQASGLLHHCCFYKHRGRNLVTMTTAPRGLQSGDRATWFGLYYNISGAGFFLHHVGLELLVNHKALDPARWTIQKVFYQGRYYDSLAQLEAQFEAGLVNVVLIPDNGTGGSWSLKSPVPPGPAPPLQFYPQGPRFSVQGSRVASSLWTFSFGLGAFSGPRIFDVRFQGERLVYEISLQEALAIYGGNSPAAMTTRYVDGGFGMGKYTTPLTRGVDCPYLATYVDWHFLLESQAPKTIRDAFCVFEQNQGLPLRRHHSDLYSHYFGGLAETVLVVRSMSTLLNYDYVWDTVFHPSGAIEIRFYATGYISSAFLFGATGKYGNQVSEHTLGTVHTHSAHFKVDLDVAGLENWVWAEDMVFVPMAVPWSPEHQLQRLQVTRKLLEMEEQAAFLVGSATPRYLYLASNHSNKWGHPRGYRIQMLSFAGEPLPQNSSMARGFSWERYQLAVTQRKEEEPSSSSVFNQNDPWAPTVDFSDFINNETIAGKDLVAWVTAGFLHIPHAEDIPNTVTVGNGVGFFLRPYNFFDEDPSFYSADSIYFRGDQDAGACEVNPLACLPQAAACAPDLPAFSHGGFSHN
Description: Activity on recombinant human VAP-1, HRP-coupled Amplex Red hydrogen peroxide assay. The note with it: substrate 1 mM benzylamine; compound incubated with enzyme at 37° C. for 30 minutes; pH 7.4; read-out: Inhibitory Activity (IC50, nM) human VAP-1. On the procedure: as §1

Assay [4] deals with T4, recombinant human MAO-A (monoamine oxidase-A) (Homo sapiens, UniProt P21397).
T4 construct: purchased Sigma-Aldrich
T4 sequence (P21397 1-527): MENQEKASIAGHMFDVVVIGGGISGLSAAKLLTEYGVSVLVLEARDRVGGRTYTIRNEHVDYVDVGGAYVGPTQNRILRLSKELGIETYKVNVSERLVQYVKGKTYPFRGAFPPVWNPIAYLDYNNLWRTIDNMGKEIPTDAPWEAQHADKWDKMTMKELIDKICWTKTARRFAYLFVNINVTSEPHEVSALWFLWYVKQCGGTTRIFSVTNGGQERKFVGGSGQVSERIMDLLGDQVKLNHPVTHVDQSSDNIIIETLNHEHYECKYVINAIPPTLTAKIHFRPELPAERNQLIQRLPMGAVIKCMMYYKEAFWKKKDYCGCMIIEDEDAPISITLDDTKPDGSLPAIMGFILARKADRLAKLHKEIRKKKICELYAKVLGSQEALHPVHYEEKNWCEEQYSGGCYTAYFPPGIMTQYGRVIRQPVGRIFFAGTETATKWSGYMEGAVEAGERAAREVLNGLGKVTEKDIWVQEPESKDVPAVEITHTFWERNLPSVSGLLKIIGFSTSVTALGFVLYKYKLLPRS
Briefly: Activity on recombinant human MAO-A, method similar to the VAP-1 assay. To be noted: substrate 0.5 mM tyramine; read-out: Inhibitory Activity (IC50, nM) MAO-A. On the procedure:
as §1, §2

Turning to `NC/C(=C\F)Cn1ncn(Cc2ccc(-c3ccn4ncnc4c3)s2)c1=O` [Example 66, 2-[(2E)-2-(aminomethyl)-3-fluoroprop-2-en-1-yl]-4-[5-([1,2,4]triazolo[1,5-a]pyridin-7-yl)thiophen-2-yl]methyl-2,4-dihydro-3H-1,2,4-triazol-3-one hydrochloride], the IC50 in assay [1] is 1200 nM; in assay [2], 340 nM; in assay [3] it was 0.5 nM; in assay [4], more than 10000 nM.
Taken in the same sequence, the figures for `NC/C(=C\F)Cn1ncn(Cc2ccc(C3=CCNCC3)s2)c1=O` [Example 163, 2-[(2E)-2-(aminomethyl)-3-fluoroprop-2-en-1-yl]-4-{[5-(1,2,3,6-tetrahydropyridin-4-yl)thiophen-2-yl]methyl}-2,4-dihydro-3H-1,2,4-triazol-3-one] were 5500 nM, 300 nM, 2.1 nM and more than 100000 nM.
For `NC/C(=C\F)Cn1ncn(Cc2ccc(-c3cnc4c(c3)CCCN4)s2)c1=O` [Example 111, 2-[(E)-2-(aminomethyl)-3-fluoro-allyl]-4-[[5-(5,6,7,8-tetrahydro-1,8-naphthyridin-3-yl)-2-thienyl]methyl]-1,2,4-triazol-3-one] the same measures were 5900 nM, 530 nM, 0.6 nM and more than 100000 nM.
Taken in the same sequence, the figures for `CN1C(=O)COc2ncc(-c3ccc(Cn4cnn(C/C(=C/F)CN)c4=O)s3)cc21` [Example 150, 7-[5-({1-[(2E)-2-(aminomethyl)-3-fluoroprop-2-en-1-yl]-5-oxo-1,5-dihydro-4H-1,2,4-triazol-4-yl}methyl)thiophen-2-yl]-1-methyl-1H-pyrido[2,3-b][1,4]oxazin-2(3H)-one] were 26000 nM, 190 nM, 0.8 nM and more than 100000 nM.
For the compound `NC/C(=C\F)Cn1ncn(Cc2ccc(-c3ccc4c(c3)COC(=O)N4)s2)c1=O` [Example 101, 6-[5-(1-[(2E)-2-(aminomethyl)-3-fluoroprop-2-en-1-yl]-5-oxo-1,5-dihydro-4H-1,2,4-triazol-4-ylmethyl)thiophen-2-yl]-1,4-dihydro-2H-3,1-benzoxazin-2-one hydrochloride], the IC50 in assay [1] is 540 nM; in assay [2], 900 nM; in assay [3], 0.2 nM; in assay [4] it was more than 100000 nM.
Turning to `CC(C)(C)NS(=O)(=O)c1cncc(-c2ccc(Cn3cnn(C/C(=C/F)CN)c3=O)s2)c1` [Example 186, 5-[5-({1-[(2E)-2-(aminomethyl)-3-fluoroprop-2-en-1-yl]-5-oxo-1,5-dihydro-4H-1,2,4-triazol-4-yl}methyl)thiophen-2-yl]-N-tert-butylpyridin-3-sulfonamide], the half-inhibitory concentration (IC50) in assay [1] was determined as 20000 nM; in assay [2], 140 nM; in assay [3], 2.4 nM.
Taken in the same sequence, the figures for `NC/C(=C\F)Cn1ncn(Cc2ccc(-c3ccc(S(=O)(=O)N4CCOCC4)cc3)s2)c1=O` [Example 198, 2-[(2E)-2-(aminomethyl)-3-fluoroprop-2-en-1-yl]-4-({5-[4-(morpholin-4-ylsulfonyl)phenyl]thiophen-2-yl}methyl)-2,4-dihydro-3H-1,2,4-triazol-3-one] were 6200 nM, 220 nM and 2.2 nM.
Consider `CN(C)c1ccc(-c2ccc(Cn3cnn(C/C(=C/F)CN)c3=O)s2)cc1` [Example 5, 2-[(2E)-2-(aminomethyl)-3-fluoroprop-2-en-1-yl]-4-(5-[4-(dimethylamino)phenyl]thiophen-2-ylmethyl)-2,4-dihydro-3H-1,2,4-triazol-3-one hydrochloride], for which the IC50 in assay [1] was 680 nM; in assay [3], 3.3 nM; in assay [4] it was more than 100000 nM.
In the case of `N#Cc1ncc(-c2ccc(Cn3cnn(C/C(=C/F)CN)c3=O)s2)cn1` [Example 54, 5-[5-(1-[(2E)-2-(aminomethyl)-3-fluoroprop-2-en-1-yl]-5-oxo-1,5-dihydro-4H-1,2,4-triazol-4-ylmethyl)thiophen-2-yl]pyrimidine-2-carbonitrile hydrochloride], the 50% inhibitory concentration (IC50) in assay [2] is 110 nM; in assay [3], 1.7 nM; in assay [4], more than 10000 nM.

The values above are taken from patent US11780830B2, “Triazolone derivatives or salts thereof and pharmaceutical compositions comprising the same” (YUHAN CORPORATION, priority 2018, dated 2023).
